Data taken from patent US20250034139A1, “AMINE COMPOUNDS HAVING ANTI-INFLAMMATORY, ANTIFUNGAL, ANTIPARASITIC, AND ANTICANCER ACTIVITY” (PHARMA CINQ, LLC, priority 2013, published 2025).

test system: THP-1 cells; test: Example D: LPS-triggered THP-1 cell death assay, acute/5-hour and chronic/48-hour; format: cell-based, Human; conditions: 10 ng/ml LPS, 0.1 μM test compound, 48 hours
Procedure: Compounds of the invention were tested at 0.1 μM versus AC in the LPS-triggered THP-1 cell death assay. Both acute/5-hour and chronic/48-hour phases of cell death were assessed. Compounds were screened in batches with DMSO as the negative control and AC as the high activity control.

Compared with `c1cncc(CNc2ccnc3ccccc23)c1` [BY, N-(Pyridin-3-ylmethyl)quinolin-4-amine], `CCCCOCCCCCCNc1ccnc2ccccc12` [CL, N-(6-Butoxyhexyl)quinolin-4-amine] is lower in “Viable cell percent change, Chronic/48-hour, Mean” value (shortened to “Viable cell percent change”): 39.64% for the first, 29.43% for the second.

Going from `CCCCCCOCCCCCOCCCn1cnc2cnc3ccccc3c21` [CF] to `CCCCCCOCCCCCCNc1ccnc2ccccc12` [CK, N-[6-(Hexyloxy)hexyl]quinolin-4-amine], the “Viable cell percent change” value rises from 27.26% to 42.23%.

For `CCCCCCOCCCCCCCCNc1ccnc2ccccc12` [CH, N-[8-(Hexyloxy)octyl]quinolin-4-amine], the “Viable cell percent change” value was 53.55%.

same assay, conditions: 0.1 μM, 5-hour and 48-hour time points

For `CCCCOCCCCCCNc1ccnc2ccccc12` [CL, N-(6-Butoxyhexyl)quinolin-4-amine], the “activity relative to AC in the LPS-triggered THP-1 cell death assay, in words” value was “equivalent activity to AC at both the 5-hour and 48-hour time points”.

test system: 4T1 murine breast cancer cells; test: Example S: in vitro anticancer screen, 4T1 cells, Wst1; format: cell-based, mouse; conditions: 1 μM, 18 hr, Wst1
Outline: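 Read-out is Wst1 absorbance (450 nm, reference 630 nm) after roughly 2 hr dye incubation, giving percent cell survival versus vehicle. Before that, compounds at 1 μM or 5 μM were applied for 18 hr to 4T1 cells plated at 1×10^4 per well.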

In the case of `CCCCCCOCCCCCOCCCn1cnc2cnc3ccccc3c21` [CF], the “4T1 1 μM, percent of cancer cell survival relative to vehicle treated cells” value is reported as 96.7%.

same assay, conditions: 5 μM, 18 hr, Wst1

In the case of `CCCCCCOCCCCCOCCCn1cnc2cnc3ccccc3c21` [CF], the “4T1 5 μM, percent of cancer cell survival relative to vehicle treated cells” value is reported as 28.6%.

same assay, conditions: Mus musculus, 4T1, 18 h, 1 μM, 18 hr, Wst1; read-out: 4T1 1 μM, percent of cancer cell survival relative to vehicle treated cells

Going from `c1cncc(CNc2ccnc3ccccc23)c1` [BY, N-(Pyridin-3-ylmethyl)quinolin-4-amine] to `CCCCOCCCCCCNc1ccnc2ccccc12` [CL, N-(6-Butoxyhexyl)quinolin-4-amine], the viability at 1 µM falls from 107% to 25.6%.

First: CCCCCCOCCCCCCCCNc1ccnc2ccccc12 [CH, N-[8-(Hexyloxy)octyl]quinolin-4-amine]
Second: CCCCCCOCCCCCCNc1ccnc2ccccc12 [CK, N-[6-(Hexyloxy)hexyl]quinolin-4-amine]
The viability at 1 µM of the first is lower: 45.2% for the first, 62.5% for the second.

same assay, conditions: Mus musculus, 4T1, 18 h, 5 μM, 18 hr, Wst1; read-out: 4T1 5 μM, percent of cancer cell survival relative to vehicle treated cells

Compared with `c1cncc(CNc2ccnc3ccccc23)c1` [BY, N-(Pyridin-3-ylmethyl)quinolin-4-amine], `CCCCOCCCCCCNc1ccnc2ccccc12` [CL, N-(6-Butoxyhexyl)quinolin-4-amine] is lower in viability at 5 µM: 209% for the first, 19.5% for the second.

Compared with `CCCCCCOCCCCCCCCNc1ccnc2ccccc12` [CH, N-[8-(Hexyloxy)octyl]quinolin-4-amine], `CCCCCCOCCCCCCNc1ccnc2ccccc12` [CK, N-[6-(Hexyloxy)hexyl]quinolin-4-amine] is higher in viability at 5 µM: 27.2% for the first, 45.3% for the second.

test system: PC3 human prostate cancer cells; test: Example S: in vitro anticancer screen, PC-3 cells, Wst1; format: cell-based; conditions: 2.5 μM, approximately 20 hours, Wst1
Procedure: Activity against PC3 human prostate cancer cells in vitro was assessed by a similar method. PC-3 prostate cancer cells were plated at 2×10^4 cells/well in 96 well flat bottom tissue culture plates, and incubated for approximately 20 hours with vehicle or test compounds at concentrations of 0.4, 0.5 or 2.5 μM as indicated for specific compounds in the right-hand column of Table 37. A 1/10th volume of Wst1 dye was added/well and incubated for two hours in the cell culture incubator. Samples were analyzed in triplicate on an EL800 Universal Microplate Reader at 450 nm, reference wavelength 630 nm.
Numerical values in the Table 37 represent percent of cancer cell survival relative to vehicle treated cells at the indicated concentrations, with values under 100 indicating anticancer cytotoxic activity at the drugs concentrations tested.

For `CCCCCCOCCCCCOCCCn1cnc2cnc3ccccc3c21` [CF], the “PC-3, percent of cancer cell survival relative to vehicle treated cells” value was 126.4%.

same assay, conditions: Homo sapiens, PC-3; 0.4 μM, approximately 20 hours, Wst1; read-out: PC-3, percent of cancer cell survival relative to vehicle treated cells

Compared with `CCCCCCOCCCCCCCCNc1ccnc2ccccc12` [CH, N-[8-(Hexyloxy)octyl]quinolin-4-amine], `CCCCOCCCCCCNc1ccnc2ccccc12` [CL, N-(6-Butoxyhexyl)quinolin-4-amine] is lower in viability at 0.4 µM: 102% for the first, 58.1% for the second.

same assay, conditions: Homo sapiens, PC-3; 0.5 μM, approximately 20 hours, Wst1; read-out: PC-3, percent of cancer cell survival relative to vehicle treated cells

With `CCCCCCOCCCCCCNc1ccnc2ccccc12` [CK, N-[6-(Hexyloxy)hexyl]quinolin-4-amine] the viability at 0.5 µM was 51.4%.

same assay, conditions: Homo sapiens, PC-3; 2.5 μM, approximately 20 hours, Wst1; read-out: PC-3, percent of cancer cell survival relative to vehicle treated cells

With `c1cncc(CNc2ccnc3ccccc23)c1` [BY, N-(Pyridin-3-ylmethyl)quinolin-4-amine] the viability at 2.5 µM was 96.6%.

test system: PC-3 prostate cancer cells; test: Example T: sensitisation of PC-3 cells to doxorubicin, oxaliplatin, paclitaxel or vincristine, Wst1; format: cell-based, human; conditions: Homo sapiens; PC-3 cells; compound 0.4 μM alone; 72 hours; Wst1; vehicle = 100; read-out: No Chemo: percent cell survival

First: CCCCCCOCCCCCCCCNc1ccnc2ccccc12 [CH, N-[8-(Hexyloxy)octyl]quinolin-4-amine]
Second: CCCCOCCCCCCNc1ccnc2ccccc12 [CL, N-(6-Butoxyhexyl)quinolin-4-amine]
The viability at 0.4 µM of the first is higher: 102% for the first, 58.1% for the second.

same assay, conditions: Homo sapiens; PC-3 cells; compound 0.5 μM alone; 72 hours; Wst1; vehicle = 100; read-out: No Chemo: percent cell survival

Work on `CCCCCCOCCCCCCNc1ccnc2ccccc12` [CK, N-[6-(Hexyloxy)hexyl]quinolin-4-amine] yielded a viability at 0.5 µM of 51.4%.

same assay, conditions: Homo sapiens; PC-3 cells; compound 2.5 μM alone; 72 hours; Wst1; vehicle = 100; read-out: No Chemo: percent cell survival

In the case of `c1cncc(CNc2ccnc3ccccc23)c1` [BY, N-(Pyridin-3-ylmethyl)quinolin-4-amine], the viability at 2.5 µM is reported as 96.6%.

same assay, conditions: PC-3 cells; compound 0.4 μM + doxorubicin 3.5 μM; 72 hours; chemotherapy agent alone normalized to 100%

Going from `CCCCCCOCCCCCCCCNc1ccnc2ccccc12` [CH, N-[8-(Hexyloxy)octyl]quinolin-4-amine] to `CCCCOCCCCCCNc1ccnc2ccccc12` [CL, N-(6-Butoxyhexyl)quinolin-4-amine], the “Doxorubicin 3.5 μM: percent cell survival” value falls from 62.8% to 22.6%.

same assay, conditions: PC-3 cells; compound 0.4 μM + oxaliplatin 100 μM; 72 hours; chemotherapy agent alone normalized to 100%

Going from `CCCCCCOCCCCCCCCNc1ccnc2ccccc12` [CH, N-[8-(Hexyloxy)octyl]quinolin-4-amine] to `CCCCOCCCCCCNc1ccnc2ccccc12` [CL, N-(6-Butoxyhexyl)quinolin-4-amine], the “Oxaliplatin 100 μM: percent cell survival” value falls from 101.1% to 23.2%.

same assay, conditions: PC-3 cells; compound 0.4 μM + paclitaxel 50 μM; 72 hours; chemotherapy agent alone normalized to 100%

First: CCCCCCOCCCCCCCCNc1ccnc2ccccc12 [CH, N-[8-(Hexyloxy)octyl]quinolin-4-amine]
Second: CCCCOCCCCCCNc1ccnc2ccccc12 [CL, N-(6-Butoxyhexyl)quinolin-4-amine]
The “Paclitaxel 50 μM: percent cell survival” value of the first is higher: 84.6% for the first, 50.3% for the second.

same assay, conditions: PC-3 cells; compound 0.4 μM + vincristine 100 nM; 72 hours; chemotherapy agent alone normalized to 100%

Going from `CCCCCCOCCCCCCCCNc1ccnc2ccccc12` [CH, N-[8-(Hexyloxy)octyl]quinolin-4-amine] to `CCCCOCCCCCCNc1ccnc2ccccc12` [CL, N-(6-Butoxyhexyl)quinolin-4-amine], the “Vincristine 100 nM: percent cell survival” value falls from 67.4% to 27.7%.

same assay, conditions: PC-3 cells; compound 0.5 μM + doxorubicin 3.5 μM; 72 hours; chemotherapy agent alone normalized to 100%

In the case of `CCCCCCOCCCCCCNc1ccnc2ccccc12` [CK, N-[6-(Hexyloxy)hexyl]quinolin-4-amine], the “Doxorubicin 3.5 μM: percent cell survival” value is reported as 111.6%.

same assay, conditions: PC-3 cells; compound 0.5 μM + oxaliplatin 100 μM; 72 hours; chemotherapy agent alone normalized to 100%

For `CCCCCCOCCCCCCNc1ccnc2ccccc12` [CK, N-[6-(Hexyloxy)hexyl]quinolin-4-amine], the “Oxaliplatin 100 μM: percent cell survival” value was 143%.

same assay, conditions: PC-3 cells; compound 0.5 μM + paclitaxel 50 μM; 72 hours; chemotherapy agent alone normalized to 100%

In the case of `CCCCCCOCCCCCCNc1ccnc2ccccc12` [CK, N-[6-(Hexyloxy)hexyl]quinolin-4-amine], the “Paclitaxel 50 μM: percent cell survival” value is reported as 64.2%.

same assay, conditions: PC-3 cells; compound 0.5 μM + vincristine 100 nM; 72 hours; chemotherapy agent alone normalized to 100%

For `CCCCCCOCCCCCCNc1ccnc2ccccc12` [CK, N-[6-(Hexyloxy)hexyl]quinolin-4-amine], the “Vincristine 100 nM: percent cell survival” value was 138.2%.

same assay, conditions: PC-3 cells; compound 2.5 μM + doxorubicin 3.5 μM; 72 hours; chemotherapy agent alone normalized to 100%

Compared with `c1cncc(CNc2ccnc3ccccc23)c1` [BY, N-(Pyridin-3-ylmethyl)quinolin-4-amine], `CCCCCCOCCCCCOCCCn1cnc2cnc3ccccc3c21` [CF] is lower in “Doxorubicin 3.5 μM: percent cell survival” value: 98.4% for the first, 68.8% for the second.

same assay, conditions: PC-3 cells; compound 2.5 μM + oxaliplatin 100 μM; 72 hours; chemotherapy agent alone normalized to 100%

Going from `c1cncc(CNc2ccnc3ccccc23)c1` [BY, N-(Pyridin-3-ylmethyl)quinolin-4-amine] to `CCCCCCOCCCCCOCCCn1cnc2cnc3ccccc3c21` [CF], the “Oxaliplatin 100 μM: percent cell survival” value falls from 101.1% to 83.5%.

same assay, conditions: PC-3 cells; compound 2.5 μM + paclitaxel 50 μM; 72 hours; chemotherapy agent alone normalized to 100%

Going from `c1cncc(CNc2ccnc3ccccc23)c1` [BY, N-(Pyridin-3-ylmethyl)quinolin-4-amine] to `CCCCCCOCCCCCOCCCn1cnc2cnc3ccccc3c21` [CF], the “Paclitaxel 50 μM: percent cell survival” value falls from 99.9% to 70.3%.

same assay, conditions: PC-3 cells; compound 2.5 μM + vincristine 100 nM; 72 hours; chemotherapy agent alone normalized to 100%

Compared with `c1cncc(CNc2ccnc3ccccc23)c1` [BY, N-(Pyridin-3-ylmethyl)quinolin-4-amine], `CCCCCCOCCCCCOCCCn1cnc2cnc3ccccc3c21` [CF] is lower in “Vincristine 100 nM: percent cell survival” value: 94.1% for the first, 75.3% for the second.

same assay, conditions: PC-3 cells; compound 2.5 μM alone; 72 hours; Wst1; vehicle = 100

In the case of `CCCCCCOCCCCCOCCCn1cnc2cnc3ccccc3c21` [CF], the “No Chemo: percent cell survival” value is reported as 126.4%.
